Laboratory results as given in patent US12655151B2, “Ion channel modulators” (Praxis Precision Medicines, Inc., priority 2019, dated 2026).

What follows are compounds tested against T1, human NaV1.6 (hNaV1.6) (Homo sapiens, UniProt Q9UQD0) (assay: Modulation of late sodium current (INaL) at hNaV1.6, PatchXpress electrophysiology). Conditions: HEK293, HEK-293 cells expressing recombinant human NaV1.6, late current evoked by 300 nM ATX-II, read-out: NaV 1.6 Assay Data (percent inhibition of INaL at hNaV1.6).
T1 construct: expressed in transfected cells; host or cells: HEK-293 (G418 selection)
T1 sequence (Q9UQD0 whole entry): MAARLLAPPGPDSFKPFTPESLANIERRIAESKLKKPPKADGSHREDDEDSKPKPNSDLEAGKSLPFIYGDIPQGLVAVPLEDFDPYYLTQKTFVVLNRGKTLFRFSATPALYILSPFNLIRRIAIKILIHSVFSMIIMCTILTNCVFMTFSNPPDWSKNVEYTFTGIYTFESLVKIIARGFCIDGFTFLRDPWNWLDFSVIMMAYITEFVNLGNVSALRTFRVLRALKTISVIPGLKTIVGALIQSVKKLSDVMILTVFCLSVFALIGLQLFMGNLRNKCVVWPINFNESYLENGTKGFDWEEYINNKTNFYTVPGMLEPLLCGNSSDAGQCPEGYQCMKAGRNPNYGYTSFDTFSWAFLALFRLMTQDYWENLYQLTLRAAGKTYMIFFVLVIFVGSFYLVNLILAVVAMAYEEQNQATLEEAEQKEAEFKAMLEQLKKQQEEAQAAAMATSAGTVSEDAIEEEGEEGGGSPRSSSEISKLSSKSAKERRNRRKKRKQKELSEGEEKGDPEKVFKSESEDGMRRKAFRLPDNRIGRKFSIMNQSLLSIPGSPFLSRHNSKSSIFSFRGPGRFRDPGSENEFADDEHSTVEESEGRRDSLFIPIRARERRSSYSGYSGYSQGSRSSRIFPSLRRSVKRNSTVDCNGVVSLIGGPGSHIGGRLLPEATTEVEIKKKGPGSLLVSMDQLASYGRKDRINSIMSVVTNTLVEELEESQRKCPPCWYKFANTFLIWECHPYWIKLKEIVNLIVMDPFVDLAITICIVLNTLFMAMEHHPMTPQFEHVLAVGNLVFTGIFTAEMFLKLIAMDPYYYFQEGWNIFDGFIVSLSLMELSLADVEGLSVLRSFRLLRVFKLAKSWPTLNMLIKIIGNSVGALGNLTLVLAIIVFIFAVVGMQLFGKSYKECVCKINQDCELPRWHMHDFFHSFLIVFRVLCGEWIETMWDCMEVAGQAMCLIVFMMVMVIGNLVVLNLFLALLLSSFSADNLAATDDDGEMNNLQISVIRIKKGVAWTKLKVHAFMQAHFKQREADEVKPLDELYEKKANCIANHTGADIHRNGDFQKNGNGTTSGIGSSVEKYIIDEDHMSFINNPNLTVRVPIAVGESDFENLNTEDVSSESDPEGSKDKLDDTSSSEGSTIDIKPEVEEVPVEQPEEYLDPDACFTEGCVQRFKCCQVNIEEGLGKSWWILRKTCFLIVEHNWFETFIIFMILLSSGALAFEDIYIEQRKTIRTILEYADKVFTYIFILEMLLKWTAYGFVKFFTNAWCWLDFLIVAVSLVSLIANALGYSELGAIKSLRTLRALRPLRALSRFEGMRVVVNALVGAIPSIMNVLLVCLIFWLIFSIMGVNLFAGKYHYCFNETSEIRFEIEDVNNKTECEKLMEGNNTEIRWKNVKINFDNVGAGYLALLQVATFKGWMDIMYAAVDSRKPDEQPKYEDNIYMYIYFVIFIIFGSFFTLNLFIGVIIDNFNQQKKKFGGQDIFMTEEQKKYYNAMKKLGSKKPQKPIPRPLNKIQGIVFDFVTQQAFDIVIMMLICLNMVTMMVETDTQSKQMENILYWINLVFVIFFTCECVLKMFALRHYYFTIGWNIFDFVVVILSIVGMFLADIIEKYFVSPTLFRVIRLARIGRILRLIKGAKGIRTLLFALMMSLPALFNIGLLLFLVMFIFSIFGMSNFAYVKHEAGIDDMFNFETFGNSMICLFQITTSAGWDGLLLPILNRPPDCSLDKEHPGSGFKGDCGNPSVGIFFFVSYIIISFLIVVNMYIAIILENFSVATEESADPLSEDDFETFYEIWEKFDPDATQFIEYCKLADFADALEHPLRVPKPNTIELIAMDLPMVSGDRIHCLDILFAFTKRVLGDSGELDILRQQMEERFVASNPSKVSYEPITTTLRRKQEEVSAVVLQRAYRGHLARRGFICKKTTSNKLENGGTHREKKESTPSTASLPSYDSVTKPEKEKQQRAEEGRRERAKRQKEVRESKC
Type: cell-based
Procedure: Functional characterization of exemplary compounds to modulate INaL expressed by the NaV1.6 voltage-gated sodium channel was accomplished using the PatchXpress™ high throughput electrophysiology platform (Molecular Devices, Sunnyvale, CA). HEK-293 cells expressing recombinant, human NaV1.6 (hNaV1.6) were grown in DMEM/high-glucose Dulbecco's modified, 10% FBS, 2 mM sodium pyruvate, 10 mM HEPES and 400 μg/mL G418. Cells were grown to 50%-80% confluency prior to harvesting. Trypsinized cells were washed, allowed to recover for 1 hour and then resuspended in extracellular recording solution at a concentration of 1×10^6 cells/ml. The onboard liquid handling facility of the PatchXpress was used for dispensing cells and applying test compounds. NaV late currents were evoked by the application of 300 nM ATX-II. INaL was evoked by depolarizing pulses to 0 mV for 200 ms from a non-inactivating holding potential (e.g., −120 mV) at a frequency of 0.1 Hz. INaL amplitude and stability were determined by analyzing the mean current amplitude over the final 20 ms of the test pulse. Following steady state block with exemplary compounds (e.g., as described herein), a Na+ free solution containing an impermeant cation (e.g., Choline or NDMG) was added to confirm the identity of the sodium current. Percent steady-state inhibition of INaL was calculated as: […], where INaL_compound and INaL_control represent INaL recorded in the presence or absence of compound, respectively.
Results from this assay relating to percent inhibition of INaL at hNaV1.6 (measured using a procedure similar to described above but using HEK-293 cells expressing recombinant, human NaV 1.6 (h NaV 1.6) at 1 μM are summarized in Table 1 below. In this table, “A” indicates inhibition of less than 30%; “B” indicates inhibition of between about 30% to about 70%; and “C” indicates inhibition of greater than 70%. “N/A” indicates not available.

inhibition at 1 µM [%]	Structure (SMILES)
> 70	CC[C@H](Oc1ccc(-c2cn3c(C(F)(F)OC)nnc3cn2)cn1)C(F)(F)F (single isomer, unassigned) [Compound 14]
> 70	CCOC(F)(F)c1nnc2cnc(-c3ccc(O[C@H](C4CC4)C(F)(F)F)nc3)cn12 (single isomer, unassigned) [Compound 29]
> 70	CCCOC(F)(F)c1nnc2cnc(-c3ccc(O[C@H](C)C(F)(F)F)nc3)cn12 [Compound 17, 3-[difluoro(propoxy)methyl]-6-[6-[(1R)-2,2,2-trifluoro-1-methyl-ethoxy]-3-pyridyl]-[1,2,4]triazolo[4,3-a]pyrazine]
> 70	CCCOC(F)(F)c1nnc2cnc(-c3ccc(OCC(F)(F)F)nc3)cn12 [Compound 8, 3-[difluoro(propoxy)methyl]-6-[6-(2,2,2-trifluoroethoxy)-3-pyridyl]-[1,2,4]triazolo[4,3-a]pyrazine]
> 70	CCOC(F)(F)c1nnc2cnc(-c3ccc(O[C@@H](CC)C(F)(F)F)nc3)cn12 (single isomer, unassigned) [Compound 20]
> 70	COC(F)(F)c1nnc2cnc(-c3ccc(O[C@@H](C4CC4)C(F)(F)F)nc3)cn12 (single isomer, unassigned) [Compound 6]
> 70	CCOC(F)(F)c1nnc2cnc(-c3ccc(O[C@@H](C)C(F)(F)F)nc3)cn12 [Compound 3, (S)-3-(ethoxydifluoromethyl)-6-(6-((1,1,1-trifluoropropan-2-yl)oxy)pyridin-3-yl)-[1,2,4]triazolo[4,3-a]pyrazine]
> 70	C[C@H](Oc1ccc(-c2cn3c(C(F)(F)OC4CC4)nnc3cn2)cn1)C(F)(F)F [Compound 2, (S)-3-(cyclopropoxydifluoromethyl)-6-(6-((1,1,1-trifluoropropan-2-yl)oxy)pyridine-3-yl)-[1,2,4]triazolo[4,3-a]pyrazine]
> 70	COC(F)(F)c1nnc2cnc(-c3ccc(O[C@H](C)C(F)F)nc3)cn12 (single isomer, unassigned) [Compound 9]
> 70	CC(C)OC(F)(F)c1nnc2cnc(-c3ccc(O[C@H](C)C(F)(F)F)nc3)cn12 [Compound 18, 3-[difluoro(isopropoxy)methyl]-6-[6-[(1R)-2,2,2-trifluoro-1-methyl-ethoxy]-3-pyridyl]-[1,2,4]triazolo[4,3-a]pyrazine]
> 70	C[C@@H](Oc1ccc(-c2cn3c(C(F)(F)OC4CC4)nnc3cn2)cn1)C(F)(F)F [Compound 1, (R)-3-(cyclopropoxydifluoromethyl)-6-(6-((1,1,1-trifluoropropan-2-yl)oxy)pyridin-3-yl)-[1,2,4]triazolo[4,3-a]pyrazine]
> 70	COC(F)(F)c1nnc2cnc(-c3ccc(O[C@H](C4CC4)C(F)(F)F)nc3)cn12 (single isomer, unassigned) [Compound 5]
> 70	COC(F)(F)c1nnc2cnc(-c3ccc(O[C@@H](C)C(F)F)nc3)cn12 (single isomer, unassigned) [Compound 10]
30 to 70	COC(F)(F)c1nnc2cnc(-c3ccc(O[C@@H](C)C(C)(F)F)nc3)cn12 (single isomer, unassigned) [Compound 16]
> 70	CCOC(F)(F)c1nnc2cnc(-c3ccc(O[C@H](C(C)C)C(F)(F)F)nc3)cn12 (single isomer, unassigned) [Compound 25]
> 70	CCCOC(F)(F)c1nnc2cnc(-c3ccc(O[C@@H](C)C(F)(F)F)nc3)cn12 [Compound 21, (S)-3-(difluoro(propoxy)methyl)-6-(6-((1,1,1-trifluoropropan-2-yl)oxy)pyridin-3-yl)-[1,2,4]triazolo[4,3-a]pyrazine]
> 70	CCOC(F)(F)c1nnc2cnc(-c3ccc(OC(C4CC4)C(F)(F)F)nc3)cn12 (stereo not drawn) [Compound 4, 6-(6-(1-cyclopropyl-2,2,2-trifluoroethoxy)pyridin-3-yl)-3-(ethoxydifluoromethyl)-[1,2,4]triazolo[4,3-a]pyrazine]
> 70	CCOC(F)(F)c1nnc2cnc(-c3ccc(O[C@H](CC)C(F)(F)F)nc3)cn12 (single isomer, unassigned) [Compound 19]
> 70	CCOC(F)(F)c1nnc2cnc(-c3ccc(O[C@@H](C4CC4)C(F)(F)F)nc3)cn12 (single isomer, unassigned) [Compound 30]
> 70	CC[C@@H](Oc1ccc(-c2cn3c(C(F)(F)OC)nnc3cn2)cn1)C(F)(F)F (single isomer, unassigned) [Compound 13]
> 70	COC(F)(F)c1nnc2cnc(-c3ccc(O[C@H](C(C)C)C(F)(F)F)nc3)cn12 (single isomer, unassigned) [Compound 28]
30 to 70	CCOC(F)(F)c1nnc2cnc(-c3ccc(O[C@@H](C(C)C)C(F)(F)F)nc3)cn12 (single isomer, unassigned) [Compound 26]
> 70	COC(F)(F)c1nnc2cnc(-c3ccc(O[C@H](C)C(C)(F)F)nc3)cn12 (single isomer, unassigned) [Compound 15]
> 70	CC(C)OC(F)(F)c1nnc2cnc(-c3ccc(O[C@@H](C)C(F)(F)F)nc3)cn12 [Compound 22, (S)-3-(difluoro(isopropoxy)methyl)-6-(6-((1,1,1-trifluoropropan-2-yl)oxy)pyridin-3-yl)-[1,2,4]triazolo[4,3-a]pyrazine]
> 70	COC(F)(F)c1nnc2cnc(-c3ccc(OC(C(C)C)C(F)(F)F)nc3)cn12 (stereo not drawn) [Compound 7, 3-(difluoro(methoxy)methyl)-6-(6-((1,1,1-trifluoro-3-methylbutan-2-yl)oxy)pyridin-3-yl)-[1,2,4]triazolo[4,3-a]pyrazine]
> 70	CC(C)OC(F)(F)c1nnc2cnc(-c3ccc(OCC(F)(F)F)nc3)cn12 [Compound 11, 3-[difluoro(isopropoxy)methyl]-6-[6-(2,2,2-trifluoroethoxy)-3-pyridyl]-[1,2,4]triazolo[4,3-a]pyrazine]
> 70	CCOC(F)(F)c1nnc2cnc(-c3ccc(O[C@H](C)C(F)F)nc3)cn12 (single isomer, unassigned) [Compound 23]
> 70	COC(F)(F)c1nnc2cnc(-c3ccc(O[C@@H](C(C)C)C(F)(F)F)nc3)cn12 (single isomer, unassigned) [Compound 27]
> 70	CCOC(F)(F)c1nnc2cnc(-c3ccc(O[C@@H](C)C(F)F)nc3)cn12 (single isomer, unassigned) [Compound 24]

Structure (SMILES)	inhibition at 1 µM [%]
COC(F)(F)c1nnc2cnc(-c3ccc(OC4CC(F)(F)C4(F)F)nc3)cn12 (stereo not drawn) [Compound 12, 3-(difluoro(methoxy)methyl)-6-(6-(2,2,3,3-tetrafluorocyclobutoxy)pyridin-3-yl)-[1,2,4]triazolo[4,3-a]pyrazine]	> 70
